Laboratory results reported in patent US12501899B2, “Mite infestation treatment” (priority 2019, dated 2025).
Structures can show the parent of a compound that is named as a salt. Where two headings read alike, the source gives them in different places.

Legend:
bees (Apis mellifera) = tested on: bees (Apis mellifera)
Method: The bees were then dispatched in the boxes (10 per box).
The bees were then put to sleep for a few minutes using CO2 (flow of 3 liters for 20 seconds) in order to deposit 1 μL of compound to be tested on their thorax using a pipette. It should be noted that the bees which received romifidine hydrochloride at a concentration of 10 μg/μL received 2 μL of product. The bees were unconscious for the time the compound to be tested was deposited, that is to say around three minutes, then they woke up.
After thoracic deposition of the compound to be tested, the 10 bees from the same box were transferred to a box containing the 10 Varroa mites (cf. “Preparation of Varroa mites” above). Liquid sugar was left in each of the boxes to feed the bees during the observations. The series of boxes was then placed in an oven at […] with a humidity of 50% in order to approximate hive conditions as closely as possible.
The mortality of Varroa mites and bees was then monitored 5 minutes, 2 hours, 4 hours and 24 hours after application of the compound to be tested to the bees. Dead Varroa mites correspond to Varroa mites detached from the bees. Dead bees correspond to bees which no longer move and which are often placed on their thorax.
The following compositions were applied to the thorax of the bees: • Solvent, • Amitraz at 1 μg/μL in acetone, • Clonidine hydrochloride at 100 μg/μL, 10 μg/μL, 1 μg/μL and 0.1 μg/μL in methanol, • Detomidine hydrochloride monohydrate at 1 μg/μL in methanol, • Dexmedetomidine hydrochloride at 100 μg/μL, 10 μg/μL, 1 μg/μL and 0.1 μg/μL in methanol, • Romifidine hydrochloride at 10 μg/μL and at 5 μg/μL in methanol, • Tizanidine hydrochloride at 1 μg/μL in methanol, • Medetomidine hydrochloride at 0.1 μg/μL in ethanol, • Levomedetomidine hydrochloride at 100 μg/μL, 10 μg/μL, 1 μg/μL and 0.1 μg/μL in methanol, • Octopamine at 1 μg/μL in ethanol. Results

Rhipicephalus sanguineus = assay: Topical acaricidal test on brown dog ticks; type: in vivo; settings: 168 h, 0.5 μl per tick, after 7 days of treatment; for mortality at 1 ppm: 1 ppm topical; for mortality at 10 ppm: 10 ppm topical; for mortality at 100 ppm: 100 ppm topical; for mortality at 1000 ppm: 1000 ppm topical
Method: Brown dog ticks, Rhipicephalus sanguineus, of 2nd stage, from a single cohort were used.
Three (3) compounds were tested, as well as a reference compound (Amitraze). For each compound tested and Amitraz, four doses (1000, 100, 10 and 1 ppm) were applied to the ticks topically. A negative control (acetone) and an untreated group were included for comparison. The experiments were carried out in triplicate.
Ten ticks were placed in a clear plastic container, measuring approximately 120 mm in diameter and 45 mm in height. The ticks were then anesthetized by direct exposure (for 10 seconds) to carbon dioxide. The treatments were then applied to the back (scutum) of each tick, using a Hamilton syringe, up to 0.5 μl of treatment per tick (1 application).
Cotton soaked in water was placed in each container to provide humidity throughout the experiment. The container was also vented throughout the experiment with a tube to introduce air into each container. The containers were maintained at a temperature of 23±3° C. Live, shocked and dead tick counts were taken daily after treatment for 7 days.
The averages in percentage of each evaluation category (healthy, knocked down and dead) were calculated, as well as the standard error. An analysis of variance (ANOVA) was performed using Minitab software, 16th edition.

bees [1] = assay: Mortality of adult bees in treated beehives (dead bee traps); type: in vivo
Method: (§1) 18 hives of bees were divided into 6 groups of 3 homogeneous hives as regards the strength of the colonies (number of bees) and the Varroa infestation.
(§2) The tested compounds were applied in the form of a gel three weeks after the queen was caged. The activity of the compounds was studied for a period of 9 days.
For this purpose, dead bee traps disposed in front of the hives were used.
(§3) The following compounds were tested: • Dexmedetomidine at 55 mg/hive in hydrochloride form, • Dexmedetomidine at 110 mg/hive in hydrochloride form, • Dexmedetomidine at 220 mg/hive in hydrochloride form, • Detomidine at 38.4 mg/hive in hydrochloride form, • Detomidine at 110 mg/hive in hydrochloride form, • Detomidine at 220 mg/hive in hydrochloride form, Results

Varroa destructor = assay: Efficiency against Varroa mites in beehives outside the brood (gel application); type: in vivo
Text: as §1
The queen of each hive was caged 3 weeks before the application of the tested compounds. The application of the tested compounds was therefore carried out in a situation outside the brood, which allows the forced passage of the Varroa mites from their reproduction phase to their phoresy phase (they are therefore all present on the bees).
as §2
Following these 9 days of treatment, a control treatment with oxalic acid was carried out (duration of treatment equal to 1 week).
Counts of Varroa mites falling on the floor were carried out at regular time intervals to quantify the number of dead Varroa mites.
The efficiency of the treatment was calculated by taking the sum of all the dead Varroa mites from D0 to D9 (tested compounds) and dividing it by the sum of all the dead Varroa mites from D0 to D16 (tested compounds+control treatment).
as §3

bees [2] = settings: 100 μg/mL syrup ad libitum
Method: Bees and Varroa mites were obtained and contacted as detailed in Example 1 (without the treatment step).
The bees on which the Varroa mites are attached (10 bees placed in contact with 10 Varroa mites) were fed with: • A pure syrup (Negative control), or • A syrup comprising dexmedetomidine hydrochloride at 100 μg/mL syrup.
The syrup was provided to the bees ad libitum in 1.5 mL eppendorf tubes.

SMILES | bees killed / bee mortality (bees (Apis mellifera); 1 μg/μL, 1 μL on bee thorax, time not stated (monitored up to 24 hours)) | mortality at 1 ppm (Rhipicephalus sanguineus) | mortality at 10 ppm (Rhipicephalus sanguineus) | mortality at 100 ppm (Rhipicephalus sanguineus) | mortality at 1000 ppm (Rhipicephalus sanguineus) | mortality of the bees in the hive (in words) (bees [1]; 220 mg/hive) | Varroacid effect in the hive (in words) (Varroa destructor; 220 mg/hive, gel, 9 days) | bee mortality in the hive (in words) (bees [1]; 55, 110, 220 mg/hive) | mortality for bees (bees (Apis mellifera); 0.1 μg/μL, after 24 hours) | mortality / toxicity for the bees (bees (Apis mellifera); 1 μg/μL, after 24 hours) | mortality for bees (bees (Apis mellifera); 10 μg/μL, after 24 hours) | toxicity for bees (bees (Apis mellifera); 100 μg/μL) | % bee mortality (bees [2]; 5 min) | % bee mortality (bees [2]; 1 h) | % bee mortality (bees [2]; 2 h) | % bee mortality (bees [2]; 3 h 30) | % bee mortality (bees [2]; 3 h 45) | % bee mortality (bees [2]; 24 h) | total efficiency against Varroa mites (dead Varroa D0 to D9 / dead Varroa D0 to D16) (Varroa destructor; 220 mg/hive, gel, 9 days, outside the brood) | dose dependence of efficiency against Varroa mites (in words) (Varroa destructor; 55, 110, 220 mg/hive)
Cc1ccc(/N=C/N(C)/C=N/c2ccc(C)cc2C)c(C)c1 [Amitraz] | 0% | 30% | 46.7% | 96.7% | 100% | – | – | – | – | – | – | – | – | – | – | – | – | – | – | –
Cc1cccc(C(C)c2cnc[nH]2)c1C (racemic) [Medetomidine hydrochloride] | – | 26.7% | 66.7% | 93.3% | 100% | – | – | – | – | – | – | – | – | – | – | – | – | – | – | –
Cc1cccc(Cc2cnc[nH]2)c1C [Detomidine hydrochloride, 4-[(2,3-dimethylphenyl)-methyl]-3H-imidazole] | – | 26.7% | 23.3% | 50% | 100% | increase in the mortality of the bees | allows to have a Varroacid effect | – | – | – | – | – | – | – | – | – | – | – | – | –
Cc1cccc([C@H](C)c2c[nH]cn2)c1C [Dexmedetomidine hydrochloride, (S)-4-[1-(2,3-dimethylphenyl)-ethyl]-1H-imidazole] | – | 20% | 93.3% | 100% | 100% | – | – | no increase in bee mortality | less than 5% | less than 5% | less than 5% | toxic for bees | 0% | 0% | 5% | 5% | 5% | 5% | 94.5% | dose effect
